# Laboratory results taken from BigSolDB 2.1.
compound,measurement,setting,value
Cc1ccc(S(=O)(=O)[O-])cc1Cl.[Na+],solubility (mole fraction),"in DMF, 280.6 K",0.0203
same,solubility (mole fraction),"in DMF, 286.3 K",0.0206
same,solubility (mole fraction),"in DMF, 291.3 K",0.0208
same,solubility (mole fraction),"in DMF, 297.6 K",0.0212
same,solubility (mole fraction),"in DMF, 304.8 K",0.0216
same,solubility (mole fraction),"in DMF, 310.7 K",0.0223
same,solubility (mole fraction),"in DMF, 314.8 K",0.0228
same,solubility (mole fraction),"in DMF, 319 K",0.0235
same,solubility (mole fraction),"in DMF, 322.1 K",0.024
same,solubility (mole fraction),"in DMF, 327.6 K",0.0252
same,solubility (mole fraction),"in DMF, 333.3 K",0.0268
same,solubility (mole fraction),"in DMSO, 294 K",0.086
same,solubility (mole fraction),"in DMSO, 299.6 K",0.0868
same,solubility (mole fraction),"in DMSO, 304.9 K",0.0878
same,solubility (mole fraction),"in DMSO, 310.6 K",0.0887
same,solubility (mole fraction),"in DMSO, 314.5 K",0.0894
same,solubility (mole fraction),"in DMSO, 319.2 K",0.0902
same,solubility (mole fraction),"in DMSO, 323.5 K",0.0912
same,solubility (mole fraction),"in DMSO, 330.2 K",0.0929
same,solubility (mole fraction),"in DMSO, 335.2 K",0.0947
same,solubility (mole fraction),"in formic acid, 283 K",0.037
same,solubility (mole fraction),"in formic acid, 288.9 K",0.0383
same,solubility (mole fraction),"in formic acid, 295.9 K",0.0398
same,solubility (mole fraction),"in formic acid, 301.4 K",0.0415
same,solubility (mole fraction),"in formic acid, 307.3 K",0.0431
same,solubility (mole fraction),"in formic acid, 313 K",0.0446
same,solubility (mole fraction),"in formic acid, 319.5 K",0.0458
same,solubility (mole fraction),"in formic acid, 324.9 K",0.0475
same,solubility (mole fraction),"in formic acid, 331.1 K",0.0491
same,solubility (mole fraction),"in formic acid, 335.5 K",0.0503
same,solubility (mole fraction),"in methanol, 287.1 K",0.00409
same,solubility (mole fraction),"in methanol, 293 K",0.00447
same,solubility (mole fraction),"in methanol, 297.1 K",0.0047
same,solubility (mole fraction),"in methanol, 302.6 K",0.00498
same,solubility (mole fraction),"in methanol, 306.1 K",0.00524
same,solubility (mole fraction),"in methanol, 311.8 K",0.0055
same,solubility (mole fraction),"in methanol, 316.7 K",0.00579
same,solubility (mole fraction),"in methanol, 321.5 K",0.00607
same,solubility (mole fraction),"in methanol, 327 K",0.00637
same,solubility (mole fraction),"in methanol, 333.1 K",0.0067
same,solubility (mole fraction),"in water, 281 K",0.00416
same,solubility (mole fraction),"in water, 284 K",0.00437
same,solubility (mole fraction),"in water, 288.1 K",0.00478
same,solubility (mole fraction),"in water, 292.2 K",0.0053
same,solubility (mole fraction),"in water, 296.5 K",0.00592
same,solubility (mole fraction),"in water, 301.2 K",0.00661
same,solubility (mole fraction),"in water, 305.6 K",0.00733
same,solubility (mole fraction),"in water, 310.7 K",0.00835
same,solubility (mole fraction),"in water, 314.6 K",0.0092
same,solubility (mole fraction),"in water, 318.7 K",0.0101
same,solubility (mole fraction),"in water, 322.4 K",0.0111
same,solubility (mole fraction),"in water, 326.2 K",0.0122
same,solubility (mole fraction),"in water, 331.1 K",0.0139
same,solubility (mole fraction),"in water, 335.1 K",0.0154
